Assay results published in the OligoGym collection.
HELM strings list units from the 5' end as sugar, base in round brackets, then linkage (d deoxyribose, r ribose, m 2'-O-methyl, p phosphodiester). Strings are as the collection lists them; they lack the last nucleoside at the 3' end of the tested compound. [moe] = 2'-O-(2-methoxyethyl) (MOE); [sp] = phosphorothioate linkage; [m5C] = 5-methylcytosine

What follows are substances tested against ATXN3 (assay: mouse, dose not given). Conditions: ASO.

Row | Substance | 3 h FOB score [score 0-7]
1 | RNA1{[moe](G)[sp].[moe](T)p.[moe](G)p.[moe](A)p.[moe]([m5C])[sp].d(T)[sp].d(A)[sp].d(A)[sp].d([m5C])[sp].d(A)[sp].d(G)[sp].d(T)[sp].d(A)[sp].d(T)[sp].d(G)[sp].[moe](T)p.[moe](T)p.[moe](T)[sp].[moe](T)}$$$$ (last 3' nucleoside missing) | 2.25
2 | RNA1{[moe](G)[sp].[moe](T)p.[moe](G)p.[moe]([m5C])p.[moe](T)[sp].d(A)[sp].d(T)[sp].d(A)[sp].d(A)[sp].d(T)[sp].d(T)[sp].d([m5C])[sp].d(T)[sp].d(T)[sp].d(G)[sp].[moe]([m5C])p.[moe](T)p.[moe](T)[sp].[moe]([m5C])}$$$$ (last 3' nucleoside missing) | 1.25
3 | RNA1{[moe](G)[sp].[moe](T)p.[moe](G)p.[moe]([m5C])p.[moe](T)[sp].d(T)[sp].d(T)[sp].d(T)[sp].d([m5C])[sp].d(A)[sp].d(T)[sp].d(A)[sp].d([m5C])[sp].d([m5C])[sp].d(A)[sp].[moe](G)p.[moe](G)p.[moe](T)[sp].[moe]([m5C])}$$$$ (last 3' nucleoside missing) | 1
4 | RNA1{[moe](G)[sp].[moe](T)p.[moe](G)p.[moe]([m5C])p.[moe](T)p.d(T)[sp].d(T)[sp].d(T)[sp].d([m5C])[sp].d(A)[sp].d(T)[sp].d(A)[sp].d([m5C])[sp].d([m5C])[sp].d(A)[sp].[moe](G)p.[moe](G)p.[moe](T)[sp].[moe]([m5C])}$$$$ (last 3' nucleoside missing) | 1.5
5 | RNA1{[moe](G)[sp].[moe](T)p.[moe](T)[sp].[moe](A)[sp].[moe](A)[sp].d(T)[sp].d(A)[sp].d([m5C])[sp].d(T)[sp].d(T)[sp].d(T)[sp].d(T)[sp].d(T)[sp].d([m5C])[sp].d([m5C])[sp].[moe](A)[sp].[moe](G)p.[moe]([m5C])[sp].[moe]([m5C])}$$$$ (last 3' nucleoside missing) | 1
6 | RNA1{[moe](G)[sp].[moe](T)p.[moe](T)p.[moe](A)p.[moe](A)p.[moe](T)p.d(A)[sp].d([m5C])[sp].d(T)[sp].d(T)[sp].d(T)[sp].d(T)[sp].d(T)[sp].d([m5C])[sp].d([m5C])[sp].d(A)[sp].[moe](G)p.[moe]([m5C])[sp].[moe]([m5C])}$$$$ (last 3' nucleoside missing) | 1
7 | RNA1{[moe](G)[sp].[moe](T)p.[moe](T)p.[moe](A)p.[moe](A)p.d(T)[sp].d(A)[sp].d([m5C])[sp].d(T)[sp].d(T)[sp].d(T)[sp].d(T)[sp].d(T)[sp].d([m5C])[sp].d([m5C])[sp].[moe](A)p.[moe](G)p.[moe]([m5C])[sp].[moe]([m5C])}$$$$ (last 3' nucleoside missing) | 1
8 | RNA1{[moe](G)[sp].[moe](T)p.[moe](T)p.[moe]([m5C])p.[moe](A)p.[moe](T)p.d(A)[sp].d(T)[sp].d([m5C])[sp].d([m5C])[sp].d(T)[sp].d(T)[sp].d(T)[sp].d(A)[sp].d(A)[sp].d([m5C])[sp].[moe]([m5C])p.[moe]([m5C])[sp].[moe](A)}$$$$ (last 3' nucleoside missing) | 0.25
9 | RNA1{[moe](G)[sp].[moe](T)p.[moe](T)p.[moe]([m5C])p.[moe]([m5C])p.d(A)[sp].d(G)[sp].d(A)[sp].d(T)[sp].d([m5C])[sp].d(A)[sp].d([m5C])[sp].d([m5C])[sp].d(A)[sp].d(T)[sp].[moe]([m5C])p.[moe](T)p.[moe](T)[sp].[moe](T)}$$$$ (last 3' nucleoside missing) | 3.5
10 | RNA1{[moe](G)[sp].[moe]([m5C])[sp].[moe](A)p.[moe]([m5C])p.[moe]([m5C])[sp].d(A)[sp].d(T)[sp].d(A)[sp].d(T)[sp].d(A)[sp].d(T)[sp].d(A)[sp].d(T)[sp].d([m5C])[sp].d(T)[sp].[moe]([m5C])p.[moe](A)p.[moe](G)[sp].[moe](A)}$$$$ (last 3' nucleoside missing) | 1
11 | RNA1{[moe](G)[sp].[moe]([m5C])[sp].[moe](T)p.[moe]([m5C])p.[moe](A)[sp].d(T)[sp].d(T)[sp].d(T)[sp].d(A)[sp].d(T)[sp].d(T)[sp].d([m5C])[sp].d(T)[sp].d([m5C])[sp].d(A)[sp].[moe](A)p.[moe](G)p.[moe](T)[sp].[moe](A)}$$$$ (last 3' nucleoside missing) | 1
12 | RNA1{[moe](G)[sp].[moe]([m5C])p.[moe](A)[sp].[moe]([m5C])[sp].[moe]([m5C])[sp].d(A)[sp].d(T)[sp].d(A)[sp].d(T)[sp].d(A)[sp].d(T)[sp].d(A)[sp].d(T)[sp].d([m5C])[sp].d(T)[sp].[moe]([m5C])[sp].[moe](A)p.[moe](G)[sp].[moe](A)}$$$$ (last 3' nucleoside missing) | 0
13 | RNA1{[moe](G)[sp].[moe]([m5C])p.[moe](A)p.[moe](T)p.[moe](A)[sp].d(T)[sp].d(T)[sp].d(G)[sp].d(G)[sp].d(T)[sp].d(T)[sp].d(T)[sp].d(T)[sp].d([m5C])[sp].[moe](T)p.[moe]([m5C])p.[moe](A)[sp].[moe](T)}$$$$ (last 3' nucleoside missing) | 5.5
14 | RNA1{[moe](G)[sp].[moe]([m5C])p.[moe](A)p.[moe](T)p.[moe](A)[sp].d(T)[sp].d(T)[sp].d(G)[sp].d(G)[sp].d(T)[sp].d(T)[sp].d(T)[sp].d(T)[sp].d([m5C])[sp].d(T)[sp].[moe]([m5C])p.[moe](A)p.[moe](T)p.[moe](T)}$$$$ (last 3' nucleoside missing) | 3
15 | RNA1{[moe](G)[sp].[moe]([m5C])p.[moe](A)p.[moe](T)p.[moe](A)p.[moe](T)p.d(T)[sp].d(G)[sp].d(G)[sp].d(T)[sp].d(T)[sp].d(T)[sp].d(T)[sp].d([m5C])[sp].d(T)[sp].d([m5C])[sp].[moe](A)p.[moe](T)[sp].[moe](T)}$$$$ (last 3' nucleoside missing) | 3
16 | RNA1{[moe](G)[sp].[moe]([m5C])p.[moe](A)p.[moe](T)p.[moe](A)p.d(T)[sp].d(T)[sp].d(G)[sp].d(G)[sp].d(T)[sp].d(T)[sp].d(T)[sp].d(T)[sp].d([m5C])[sp].d(T)[sp].[moe]([m5C])p.[moe](A)p.[moe](T)[sp].[moe](T)}$$$$ (last 3' nucleoside missing) | 2.5
17 | RNA1{[moe](G)[sp].[moe]([m5C])p.[moe](A)p.[moe](T)p.[moe](A)p.d(T)[sp].d(T)[sp].d(G)[sp].d(G)[sp].d(T)[sp].d(T)[sp].d(T)[sp].d(T)[sp].d([m5C])[sp].d(T)[sp].[moe]([m5C])p.[moe](A)p.[moe](T)p.[moe](T)}$$$$ (last 3' nucleoside missing) | 3
18 | RNA1{[moe](G)[sp].[moe]([m5C])p.[moe](A)p.[moe]([m5C])p.[moe](A)p.[moe](T)p.d(T)[sp].d(T)[sp].d(T)[sp].d(T)[sp].d(T)[sp].d(A)[sp].d(T)[sp].d(A)[sp].d(G)[sp].d(A)[sp].[moe](G)p.[moe](T)[sp].[moe](T)}$$$$ (last 3' nucleoside missing) | 1
19 | RNA1{[moe](G)[sp].[moe]([m5C])p.[moe](A)p.[moe]([m5C])p.[moe](A)p.[moe]([m5C])p.d(T)[sp].d(T)[sp].d(T)[sp].d([m5C])[sp].d([m5C])[sp].d(T)[sp].d([m5C])[sp].d([m5C])[sp].d(T)[sp].d([m5C])[sp].[moe](A)p.[moe](A)[sp].[moe](T)}$$$$ (last 3' nucleoside missing) | 0
20 | RNA1{[moe](G)[sp].[moe]([m5C])p.[moe](A)p.[moe]([m5C])p.[moe]([m5C])p.[moe](A)p.d(T)[sp].d(A)[sp].d(T)[sp].d(A)[sp].d(T)[sp].d(A)[sp].d(T)[sp].d([m5C])[sp].d(T)[sp].d([m5C])[sp].[moe](A)p.[moe](G)[sp].[moe](A)}$$$$ (last 3' nucleoside missing) | 0.25
21 | RNA1{[moe](G)[sp].[moe]([m5C])p.[moe](A)p.[moe]([m5C])p.[moe]([m5C])p.d(A)[sp].d(T)[sp].d(A)[sp].d(T)[sp].d(A)[sp].d(T)[sp].d(A)[sp].d(T)[sp].d([m5C])[sp].d(T)[sp].[moe]([m5C])p.[moe](A)p.[moe](G)[sp].[moe](A)}$$$$ (last 3' nucleoside missing) | 1
22 | RNA1{[moe](G)[sp].[moe]([m5C])p.[moe](T)[sp].[moe]([m5C])[sp].[moe](A)[sp].d(T)[sp].d(T)[sp].d(T)[sp].d(A)[sp].d(T)[sp].d(T)[sp].d([m5C])[sp].d(T)[sp].d([m5C])[sp].d(A)[sp].[moe](A)[sp].[moe](G)p.[moe](T)[sp].[moe](A)}$$$$ (last 3' nucleoside missing) | 2
23 | RNA1{[moe](G)[sp].[moe]([m5C])p.[moe](T)p.[moe](A)p.[moe](T)[sp].d(A)[sp].d(A)[sp].d(T)[sp].d(T)[sp].d([m5C])[sp].d(T)[sp].d(T)[sp].d(G)[sp].d([m5C])[sp].d(T)[sp].[moe](T)p.[moe]([m5C])p.[moe](A)[sp].[moe](A)}$$$$ (last 3' nucleoside missing) | 1.75
24 | RNA1{[moe](G)[sp].[moe]([m5C])p.[moe](T)p.[moe]([m5C])p.[moe](A)p.[moe](T)p.d(T)[sp].d(T)[sp].d(A)[sp].d(T)[sp].d(T)[sp].d([m5C])[sp].d(T)[sp].d([m5C])[sp].d(A)[sp].d(A)[sp].[moe](G)p.[moe](T)[sp].[moe](A)}$$$$ (last 3' nucleoside missing) | 0
25 | RNA1{[moe](G)[sp].[moe]([m5C])p.[moe](T)p.[moe]([m5C])p.[moe](A)p.d(T)[sp].d(T)[sp].d(T)[sp].d(A)[sp].d(T)[sp].d(T)[sp].d([m5C])[sp].d(T)[sp].d([m5C])[sp].d(A)[sp].[moe](A)p.[moe](G)p.[moe](T)[sp].[moe](A)}$$$$ (last 3' nucleoside missing) | 1
26 | RNA1{[moe](G)[sp].[moe]([m5C])p.[moe]([m5C])[sp].[moe](A)[sp].[moe](A)[sp].d(A)[sp].d(A)[sp].d(T)[sp].d(A)[sp].d([m5C])[sp].d(T)[sp].d(A)[sp].d(A)[sp].d([m5C])[sp].d(A)[sp].[moe](T)[sp].[moe]([m5C])p.[moe](A)[sp].[moe](G)}$$$$ (last 3' nucleoside missing) | 2.5
